Assay results: patent publication US6395255B1, “Radiolabeled vasoactive intestinal peptide analogs for imaging and therapy” (Thomas Jefferson University, priority 1998, dated 2002)
Entries after “also recorded” stand apart in the source; their conditions may differ. Square brackets hold non-standard residues; d marks the D form. Ends that are not written are not given here. Peptide text beside a SMILES is read from it. GABA = NCCCC(=O)O

Tests used:
[1] = Tissue distribution and gamma camera imaging in nude mice bearing LS174T tumors; conditions: athymic NCr nude, mouse, iv, total radioactivity, 24 h postinjection, mean ± SD, n = 5; for tissue uptake at 24 h: Biodistribution
Experimental: Tissue Distribution Studies
(§1) The ability of ^99MTc-TP3654 to detect human colorectal carcinoma was examined in nude mice.
(§2) Human colorectal cancer cells LS 174T (ATCC) were grown in culture and 5×10^6 viable cells were implanted intramuscularly in the right thighs of athymic NCr nude mice that weighed 20-25 g. Tumors were grown to no more than 1 cm in diameter. Each animal received approximately 700 Ci of ^99mTc-TP3654 (1450 Ci/mrnol) in 200 1, of saline through a lateral tail vein. Exact activity injected was determined by measuring the syringe, before and after injection, in a calibrated ionization chamber (Capintech, Ramsey, N.J.). A suitable standard of ^99mTc was prepared at the time of injection.
(§3) At 4 or 24 h later, animals were killed and imaged using a GE STARCAM gamma camera (Milwaukee, Wis.) equipped with a low-energy parallel-hole collimator and a dedicated computer. Tissues were dissected and weighed, and associated radioactivity was counted (Packard 5000 series gamma counter), along with a standard, in duplicate. Results were calculated as percentage injected dose per gram of tissue (% ID/g) and were analyzed by using Student t test.
(§4) A tissue distribution study was performed in a manner similar to that for ^99mTc-TP3654.
(§5) For animal tissue distribution studies, a protocol similar to that for ^99mTc-TP3654 was followed.

[2] = tested on: LS174T human colorectal tumor; experiment: as above; conditions: for delineation of tumor in gamma camera image: nude mice bearing LS174T tumor in right thigh, 24 h after injection
Experimental: Tissue Distribution Studies
as §1, §2, §3, §4, §5

VIP receptor = experiment: Receptor blocking with unlabeled VIP-28 or TP3654 in LS174T tumor-bearing nude mice; format: in vivo; conditions: 50 μg unlabeled peptide intravenously 30 min before tracer, 24 h, vs not pretreated mice
Experimental: Receptor Blocking […] Mice were killed 24 h later, and percentage injected dose per gram of tissues was determined. Data were compared to 24 h distribution in mice (n=5) given 700 μCi ^99mTc-TP3654 but not pretreated with unlabeled VIP or TP3654.

[3] = parameters: species or system Sprague-Dawley rats; conditions: Sprague-Dawley, rat, in vivo, iv
Experimental: Blood Clearance in Rats Three Sprague-Dawley rats, each weighing approximately 250 g, were injected through a lateral tail vein with 1 mCi ^99mTcTP3654 and serial blood samples were drawn, in triplicate, through the other lateral tail vein at 1, 5, 10, 15 and 30 min and then at 1, 2, 4, 6, 18 and 24 h. Blood samples were weighed, radioactivity was counted with a standard ^99mTc solution prepared at the time of injection and the percentage injected dose per gram of blood was plotted as a function of time.

[4] = format: physicochemical
Experimental: Stability of ^99mTc-TP3654 To measure the in vitro stability of ^99mTc-TP3654, a known quantity of the preparation was incubated at 37° C. for 24 h, with 100 molar excess of DTPA, HSA or cysteine. At 0, 5 and 24 h, samples were withdrawn for HPLC analysis and the radioactivity that was associated with the challenging agent and that remained as ^99mTc-TP3654 (Rt=11.8 min) was measured.

[5] = tested on: LS174T human colorectal tumor; conditions: athymic NCr nude, mouse, in vivo, iv, 24 h
Experimental: Tissue Distribution Studies
as §1, §2, §3, §4, §5

in vivo [6] = conditions: athymic NCr nude, mouse, iv, total radioactivity; for tissue uptake at 4 h / tissue uptake at 24 h: Biodistribution
Experimental: Tissue Distribution Studies
as §1, §2, §3, §4, §5

in vivo [7] = conditions: rat, total radioactivity
[8] = tested on: internal anal sphincter (IAS) smooth muscle; experiment: Functional assay using opossum internal anal sphincter smooth muscle strips (fall in resting tension); format: tissue-based, opossums (Didelphis virginiana); conditions: at 10^−6 mol/L; 100% = maximal relaxation with 5 mmol/L EDTA
colonic adenocarcinoma = conditions: cited from earlier work

C[C@@H](NC(=O)CN)C(=O)NCC(=O)NCC(=O)NCCCC(=O)O [^99mTc-G(D)AGG-Aba, metal not drawn] (H-G[dA]GG[GABA]-OH; N-terminus and C-terminus assumed)
tissue uptake at 24 h ([1]; blood, nude mice bearing LS174T tumors): 0.03 %ID/g
tissue uptake at 24 h ([1]; heart, nude mice bearing LS174T tumors): 0.01 %ID/g
tissue uptake at 24 h ([1]; kidney, nude mice bearing LS174T tumors): 0.2 ± 0.02 %ID/g
tissue uptake at 24 h ([1]; liver, nude mice bearing LS174T tumors): 0.16 ± 0.02 %ID/g
tissue uptake at 24 h ([1]; lung, nude mice bearing LS174T tumors): 0.03 %ID/g
tissue uptake at 24 h ([1]; muscle, nude mice bearing LS174T tumors): 0.01 %ID/g
tissue uptake at 24 h ([1]; small intestine, nude mice bearing LS174T tumors): 0.03 ± 0.01 %ID/g
tissue uptake at 24 h ([1]; spleen, nude mice bearing LS174T tumors): 0.06 ± 0.03 %ID/g
tissue uptake at 24 h ([1]; tumor, LS174T tumor, nude mice): 0.03 %ID/g
tissue to tissue ratio at 24 h ([1]; tumor/blood, T/B ratio (tumor-to-blood), nude mice bearing LS174T tumors): 0.77 ± 0.03
tissue to tissue ratio at 24 h ([1]; tumor/muscle, T/M ratio (tumor-to-muscle), nude mice bearing LS174T tumors): 1.88 ± 0.36
Biodistribution, Kidney ([2]; kidney, 24 h postinjection, nude mice bearing LS174T tumors, mean ± SD, n = 5): 0.2±0.02 % ID/g
delineation of tumor in gamma camera image [2]: not delineated
delineation of tumor in gamma camera image ([2]; listed as 99mTc-G(D)AGG): not

CC[C@H](C)[C@H](NC(=O)[C@H](CO)NC(=O)[C@H](CC(N)=O)NC(=O)[C@H](CC(C)C)NC(=O)[C@H](Cc1ccc(O)cc1)NC(=O)[C@H](CCCCN)NC(=O)[C@H](CCCCN)NC(=O)[C@@H](NC(=O)[C@H](C)NC(=O)[C@H](CCSC)NC(=O)[C@H](CCC(N)=O)NC(=O)[C@H](CCCCN)NC(=O)[C@H](CCCNC(=N)N)NC(=O)[C@H](CC(C)C)NC(=O)[C@H](CCCNC(=N)N)NC(=O)[C@@H](NC(=O)[C@H](Cc1ccc(O)cc1)NC(=O)[C@H](CC(N)=O)NC(=O)[C@H](CC(=O)O)NC(=O)[C@@H](NC(=O)[C@H](Cc1ccccc1)NC(=O)[C@@H](NC(=O)[C@H](C)NC(=O)[C@H](CC(=O)O)NC(=O)[C@H](CO)NC(=O)[C@@H](N)Cc1c[nH]cn1)C(C)C)[C@@H](C)O)[C@@H](C)O)C(C)C)C(=O)N[C@@H](CC(C)C)C(=O)N[C@@H](CC(N)=O)C(=O)NCCCC(=O)NCC(=O)NCC(=O)N[C@H](C)C(=O)NCC(=O)O [^99mTc-TP3654, metal not drawn]
uptake of ^99mTc-TP3654 after pretreatment with unlabeled TP3654 or VIP (VIP receptor): decreased in all VIP receptor-rich tissues except the kidneys
blood clearance α-t 1/2 [3]: approximately 5 min
blood clearance β-t½ [3]: approximately 120 min
stability on storage (HPLC) [4]: stable for up to 24 h
radioactivity displaced by challenge with 100 molar excess of DTPA, HSA or cysteine ([4]; 24 h of incubation at 37° C.): approximately 11%
Biodistribution, Tumor [5]: 0.23 ± 0.13 % ID/g
tissue uptake at 4 h (in vivo [6]; Blood): 0.21 ± 0.02 %ID/g
tissue uptake at 24 h (in vivo [6]; Blood): 0.12 ± 0.02 %ID/g
tissue uptake at 4 h (in vivo [6]; Heart): 0.1 %ID/g
tissue uptake at 24 h (in vivo [6]; Heart): 0.06 ± 0.01 %ID/g
tissue uptake at 4 h (in vivo [6]; Kidney): 19 ± 3.75 %ID/g
tissue uptake at 24 h (in vivo [6]; Kidney): 3.52 ± 0.4 %ID/g
tissue uptake at 4 h (in vivo [6]; Liver): 1.12 ± 0.08 %ID/g
tissue uptake at 24 h (in vivo [6]; Liver): 0.33 ± 0.04 %ID/g
tissue uptake at 4 h (in vivo [6]; Lung): 0.17 ± 0.01 %ID/g
tissue uptake at 24 h (in vivo [6]; Lung): 0.16 ± 0.09 %ID/g
tissue uptake at 4 h (in vivo [6]; Muscle): 0.09 ± 0.01 %ID/g
tissue uptake at 24 h (in vivo [6]; Muscle): 0.04 ± 0.01 %ID/g
tissue uptake at 4 h (in vivo [6]; Small intestine): 0.18 ± 0.05 %ID/g
tissue uptake at 24 h (in vivo [6]; Small intestine): 0.05 ± 0.01 %ID/g
tissue uptake at 4 h (in vivo [6]; Spleen): 0.19 ± 0.05 %ID/g
tissue uptake at 24 h (in vivo [6]; Spleen): 0.11 ± 0.02 %ID/g
tissue uptake at 4 h (in vivo [6]; Tumor): 0.24 ± 0.06 %ID/g
tissue uptake at 24 h (in vivo [6]; Tumor): 0.2 %ID/g
tissue to tissue ratio at 4 h (in vivo [6]; T/B ratio (tumor-to-blood)): 1.16 ± 0.29
tissue to tissue ratio at 24 h (in vivo [6]; T/B ratio (tumor-to-blood)): 1.98 ± 1.44
tissue to tissue ratio at 4 h (in vivo [6]; T/M ratio (tumor-to-muscle)): 2.73 ± 1.09
tissue to tissue ratio at 24 h (in vivo [6]; T/M ratio (tumor-to-muscle)): 6.28 ± 3.09
tissue uptake at 4 h (in vivo [7]): 0.73 ± 0.12 %ID/g
delineation of tumor in gamma camera image [2]: delineates the tumor and both kidneys; also recorded: clearly delineated

CPTA-VIP: VIP conjugated with the chelating agent CPTA, [4-(1,4,8,11-tetraazacyclotetradec-1-yl)methyl] benzoic acid (HSDAVFTDNYTRLRKQMAVKKYLNSILN; ends and bridges not checked; also: conjugated with chelator CPTA, position not given here; UniProt P01282 125-152, looked up)
muscle relaxivity (fall in resting IAS tension) [8]: 35%

I-123 labeled VIP: I-123 labeled vasoactive intestinal peptide (VIP)
positive scans in patients with colonic adenocarcinoma (colonic adenocarcinoma; 17 patients): 17 out of 17
lung uptake (colonic adenocarcinoma; human, in vivo): approximately 25%
effectiveness in imaging colorectal adenocarcinoma (colonic adenocarcinoma; patients): 100%
effectiveness in imaging in patients with liver metastases (colonic adenocarcinoma; patients): 83%
imaging of lung metastases (colonic adenocarcinoma; patients): 66%
